Test: Human HepG2 cell viability assay in 384 well format
Assay type: toxicity, cell-based
Parameters: dose 125 nL, time 70.5 hour; concentration not given beside the values
Conditions: HepG2 cells, read-out: Inhibition

## CC(C)(C)NC(=O)COc1ccc(CNCc2ccccn2)cc1
  cytotoxicity at 70.5 h: 25.3%

## O=C(c1ccoc1)N1C[C@H]2CC[C@@]3(N=C(c4ccccc4)NC3=O)[C@H]2C1
  cytotoxicity at 70.5 h: 0.375%

## Cc1cccc(CN2C[C@@H]3CN(C(=O)c4ccnnc4)C[C@@H]3C2=O)c1
  cytotoxicity at 70.5 h: -2.38%

## CC(=O)N1CCOC2(CCCN(Cc3ccc(N(C)C)cc3)C2)C1 (stereo not drawn)
  cytotoxicity at 70.5 h: -2.02%

## CC(=O)NCC(=O)NCC1Cn2nnc(-c3cccc(F)c3)c2CO1 (stereo not drawn)
  cytotoxicity at 70.5 h: -0.435%

## CCN1C[C@@H]2CN(C(=O)c3ccsc3)C[C@@H]2C1=O
  cytotoxicity at 70.5 h: -0.46%

## Cc1cccc(CN2CCCC3(CCN(c4cccnc4)C3=O)C2)n1 (stereo not drawn)
  cytotoxicity at 70.5 h: -3.53%

## Cc1cccc(CN2C[C@@H]3CN(C(=O)c4conc4C)C[C@@H]3C2=O)c1
  cytotoxicity at 70.5 h: -3.16%

## CC(=O)N1CC2(CCN(C(=O)c3ccoc3)C2)C1
  cytotoxicity at 70.5 h: -2.66%

## CC(=O)N1[C@H](Cn2cncn2)C[C@@H]2CN(c3ncccn3)CC[C@@H]21
  cytotoxicity at 70.5 h: 1.33%

## O=C(c1ccnnc1)N1CC[C@H](OCC2CC2)[C@@H]1Cc1ccncc1
  cytotoxicity at 70.5 h: -1.15%

## Cc1ncnc2c1CCN(C(=O)c1cnccn1)CC2
  cytotoxicity at 70.5 h: -0.588%

## O=C(C1CC=CC1)N1CCC2(CCC(=O)N2Cc2cccc(F)c2)CC1
  cytotoxicity at 70.5 h: 2.09%

## CO[C@@H]1CCN(c2ncccn2)[C@H]1Cc1ccccc1
  cytotoxicity at 70.5 h: 1.42%

## CN1CCN(Cc2cn3c(n2)CN(C(=O)c2ccco2)CC3)CC1
  cytotoxicity at 70.5 h: 1.76%

## COCCN1C[C@H]2CCN(c3ncccn3)CC[C@H]2S1(=O)=O
  cytotoxicity at 70.5 h: -3.17%

## O=C(C1CC=CC1)N1CCC2(CCN(Cc3cccc(F)c3)CC2)C1
  cytotoxicity at 70.5 h: -3.05%

## CCN(CC)CCN1CCO[C@H]2[C@@H](OCc3ccccn3)CC[C@@H]21
  cytotoxicity at 70.5 h: -4.9%

## Cc1ccc(CN2CCOC3(CCCN(C(=O)c4ccco4)C3)C2)o1 (stereo not drawn)
  cytotoxicity at 70.5 h: -5.05%

## O=C(C1CC=CC1)N1CCc2ncnc(-c3ccncc3)c2CC1
  cytotoxicity at 70.5 h: 0.995%

## COCC(=O)N1CC[C@@H]2CN(Cc3ccccc3)S(=O)(=O)[C@@H]2CC1
  cytotoxicity at 70.5 h: -5.37%

## CC(C)(C)C(=O)N1CCC2(COCc3cnc(N4CCOCC4)nc32)C1 (stereo not drawn)
  cytotoxicity at 70.5 h: -19.1%

## O=c1cc(CN2CCCC2)nc2n1CCCN(Cc1ccsc1)C2
  cytotoxicity at 70.5 h: -17.6%

## Cn1cc(CN2CC[C@H]3OCC[C@@H](C(=O)N4CCCCO4)[C@@H]3C2)cn1
  cytotoxicity at 70.5 h: -15.8%

## CCc1ncnc2c1CCN(C(=O)Cc1ccccn1)CC2
  cytotoxicity at 70.5 h: -19.9%

## O=C1COC2(CCN(Cc3ccccn3)CC2)CN1CC1CC1
  cytotoxicity at 70.5 h: -0.792%

## Cn1cnc2c1C(COCC1CC1)CN(Cc1ccsc1)C2 (stereo not drawn)
  cytotoxicity at 70.5 h: 5.05%

## O=C(Cc1ccsc1)NCC1OCCc2cn(CC3CC3)nc21 (stereo not drawn)
  cytotoxicity at 70.5 h: -2.21%

## Cn1cc(C[C@H]2[C@@H](O)CCN2C(=O)C2CC=CC2)cn1
  cytotoxicity at 70.5 h: 7.47%

## CNC(=O)[C@H]1C[C@@H]2CN(C(=O)Nc3ccc(F)cc3)C[C@H]1O2
  cytotoxicity at 70.5 h: -0.584%

## O=C(Nc1ccc(F)cc1)N1C[C@H]2C[C@H](C(=O)N3CCOCC3)[C@@H](C1)O2
  cytotoxicity at 70.5 h: -1.46%

## Cc1nc([C@@H]2C[C@@H]3CCN(C(=O)c4ccnnc4)C[C@H]3O2)sc1C
  cytotoxicity at 70.5 h: 5.38%

## Cn1cc2c(n1)C(CNC(=O)Cc1ccsc1)OCC2 (stereo not drawn)
  cytotoxicity at 70.5 h: -6.77%

## CNC(=O)[C@@]12CCCN(c3ncccn3)[C@@H]1CN(C(=O)NC(C)C)C2
  cytotoxicity at 70.5 h: 34.2%

## O=C1NCC[C@]12CN(Cc1ccoc1)C[C@H]2c1ccccc1
  cytotoxicity at 70.5 h: 16.2%

## CNC(=O)C1Cn2ccnc2C2(CCN(CCF)CC2)O1 (stereo not drawn)
  cytotoxicity at 70.5 h: -13.9%

## CC(C)CN1CCCC2(CCN(C(=O)c3cnccn3)C2)C1 (stereo not drawn)
  cytotoxicity at 70.5 h: -14.6%

## COCC1CC2(CCN(C(=O)c3ccc(OC)c(Cl)c3)CC2)CO1 (stereo not drawn)
  cytotoxicity at 70.5 h: -8.41%

## O=C(c1ccsc1)N1C[C@@H]2C[C@@H](c3nnc(C4CC4)o3)O[C@@H]2C1
  cytotoxicity at 70.5 h: -8.35%

## O=C(CCc1ccccc1)N1CCn2cc(Cn3cncn3)nc2C1
  cytotoxicity at 70.5 h: -11.8%

## CO[C@@H]1CC[C@H]2[C@H]1OCCN2C(=O)C1=CCCC1
  cytotoxicity at 70.5 h: -20.1%

## COc1ccc2c(c1)C1(CCN(Cc3ccncc3)CC1)N(C)CC2
  cytotoxicity at 70.5 h: -10.8%

## COCC1CC2(CCN(C(=O)c3cccc(C)c3)CC2)CO1 (stereo not drawn)
  cytotoxicity at 70.5 h: -12.6%

## CCOc1ccc(S(=O)(=O)N(C)Cc2cnn(CC)c2)cc1
  cytotoxicity at 70.5 h: -2.15%

## Cc1c(Cl)c(C(=O)NCc2ccc(F)cc2)nn1C
  cytotoxicity at 70.5 h: -5.73%

## O=C(CCn1nc(C(F)(F)F)c(Cl)c1C1CC1)NN1CCOCC1
  cytotoxicity at 70.5 h: -1.82%

## Cc1c(Cl)c(C(F)(F)F)nn1C(C)C(=O)NN1CCN(C)CC1 (stereo not drawn)
  cytotoxicity at 70.5 h: -3.23%

## CCC(=O)c1ccccc1NN1c2ccccc2C(=O)C1(C)OC (stereo not drawn)
  cytotoxicity at 70.5 h: 4.64%

## CN1CCCc2c1nc1c(c2N)CCC1
  cytotoxicity at 70.5 h: -7.63%

## CCn1c(=O)c2cc(S(N)(=O)=O)ccc2n(CC)c1=O
  cytotoxicity at 70.5 h: -2.07%

## Fc1cccc(Cl)c1CNCc1ccccn1
  cytotoxicity at 70.5 h: -12.6%

## O=C(COCC(=O)N1CCCCCC1)NCc1cccc(Br)c1
  cytotoxicity at 70.5 h: 0.154%

## C/N=C1/c2cc3cc(OC)ccc3n2CCN1C
  cytotoxicity at 70.5 h: -0.795%

## O=c1c2c(ncn1CCCO)nc1n2CCC1
  cytotoxicity at 70.5 h: -1.36%

## O=C1CC(N2CCN(c3ccccc3O)CC2)C(=O)N1Cc1cccs1 (stereo not drawn)
  cytotoxicity at 70.5 h: -12.2%

## O=C(COCC(=O)N(c1ccccc1)c1ccccc1)N1CCCC1
  cytotoxicity at 70.5 h: -3.7%

## CNC(=O)[C@H]1C[C@@H]2CN(S(=O)(=O)c3ccc(F)cc3)C[C@@H]2N1C
  cytotoxicity at 70.5 h: 5.56%

## CNC(=O)[C@H]1C[C@@H]2CN(S(=O)(=O)c3ccc(C)cc3)C[C@@H]2N1C
  cytotoxicity at 70.5 h: -1.06%

## CNC(=O)[C@H]1C[C@@H]2CN(S(=O)(=O)c3cccc(F)c3)C[C@@H]2N1C
  cytotoxicity at 70.5 h: 1.47%

## CN(C)Cc1cc(=O)n2c(n1)CN(C(=O)Cc1cccs1)CCC2
  cytotoxicity at 70.5 h: 1.23%

## Cc1ccc2c(c1)C1(CC2)CCN(CC(=O)O)CC1
  cytotoxicity at 70.5 h: 5.44%

## O=C([C@H]1COC[C@H]2CN(C3CCCC3)C[C@H]21)N1CCCO1
  cytotoxicity at 70.5 h: 41.4%

## CC1CCN(C(=O)[C@@H]2CC[C@@H]3[C@@H](CCN3c3ncc(F)cn3)O2)CC1
  cytotoxicity at 70.5 h: -2.26%

## O=C(c1ccc[nH]1)N1CC[C@@H](OCC2CC2)[C@@H]1Cc1cccnc1
  cytotoxicity at 70.5 h: 0.146%

## COCC(=O)N1CC[C@@H](OCC2CC2)[C@@H]1Cc1cccnc1
  cytotoxicity at 70.5 h: 0.787%

## O=C([C@@H]1COC[C@H]2CN(C3CCOCC3)C[C@H]21)N1CCOCC1
  cytotoxicity at 70.5 h: -1.42%

## CC(C)CN1CCC2(CCN(Cc3nccs3)CC2)C1=O
  cytotoxicity at 70.5 h: 0.492%

## COCC(=O)N1C[C@H]2CCCC(OCc3cccnc3)[C@H]2C1 (stereo partly drawn)
  cytotoxicity at 70.5 h: -6.29%

## O=C(NCC1CC1)[C@@H]1CCO[C@@H]2CCN(Cc3ccc(F)cc3)C[C@H]21
  cytotoxicity at 70.5 h: -4.34%

## O=S(=O)(C1CC1)N1C[C@H]2CCC[C@@]2(COc2ccccn2)C1
  cytotoxicity at 70.5 h: -19.4%

## CC1c2ncc(COc3cccnc3)n2CCN1C(=O)Cc1ccco1 (stereo not drawn)
  cytotoxicity at 70.5 h: -13.8%

## COCCN1CC[C@H](O)[C@@H]1Cc1ccccc1
  cytotoxicity at 70.5 h: -16.7%

## Cn1cc(N2CC3(CCN(CC4CCOCC4)CC3)OCC2=O)cn1
  cytotoxicity at 70.5 h: -17.2%

## CC1c2ncc(COc3cccnc3)n2CCN1C(=O)C1=CCCC1 (stereo not drawn)
  cytotoxicity at 70.5 h: -9.18%

## O=C([C@H]1CCCO1)N1CCCC2(CCN(Cc3ccncc3)C2=O)C1 (stereo partly drawn)
  cytotoxicity at 70.5 h: 22.1%

## CN(C)S(=O)(=O)N1C[C@H](Oc2cccnc2)[C@H]2OCCC[C@H]21
  cytotoxicity at 70.5 h: 31.1%

## CNC(=O)[C@@]12CCO[C@@H]1CCN(Cc1scnc1C)C2
  cytotoxicity at 70.5 h: 4.42%

## Cn1ccnc1CN1CCC2(CC(=O)N(c3cccc(F)c3)C2)C1 (stereo not drawn)
  cytotoxicity at 70.5 h: -4.42%

## COc1ccc(CN2CCn3cc(Cn4cccn4)nc3C2)cc1
  cytotoxicity at 70.5 h: 3.13%

## Cc1ccc(C(=O)N2CCn3cc(CN(C)Cc4ccco4)nc3C2)o1
  cytotoxicity at 70.5 h: 8.16%

## Cc1nc(CN2CCC3(CCN(c4ncc(F)cn4)C3)C2=O)cs1 (stereo not drawn)
  cytotoxicity at 70.5 h: 4.85%

## CN(C)C(=O)N1C[C@H](Oc2ccccn2)[C@H]2OCCC[C@H]21
  cytotoxicity at 70.5 h: -7.83%

## Cc1cc(CN2CC[C@H]3OCC[C@@]3(C(=O)NC(C)C)C2)no1
  cytotoxicity at 70.5 h: 3.85%

## CNC(=O)[C@H]1C[C@H]2OCC[C@H]2N(Cc2cccc3ccccc23)C1
  cytotoxicity at 70.5 h: -6.96%

## Cc1ccoc1C(=O)N1C[C@H]2CCC[C@@]2(COCc2ccncc2)C1
  cytotoxicity at 70.5 h: 5.44%

## c1cnn(Cc2cn3c(n2)CN(Cc2nccs2)CC3)c1
  cytotoxicity at 70.5 h: -3.15%

## Cn1ccnc1CN1CCC2(CC1)CC(NC(=O)c1ccccn1)CO2 (stereo not drawn)
  cytotoxicity at 70.5 h: 8.41%

## Cn1cccc1CN1CCC2(CCCN(C(=O)c3cnccn3)C2)C1 (stereo not drawn)
  cytotoxicity at 70.5 h: 17%

## Cc1ccc(C(=O)N2CCO[C@H]3[C@@H](OCc4ccccn4)CC[C@@H]32)o1
  cytotoxicity at 70.5 h: -19.5%

## COCC1CN(C(=O)COc2ccccc2)Cc2cn(C)nc21 (stereo not drawn)
  cytotoxicity at 70.5 h: -18%

## O=S(=O)(C1CC1)N1CC[C@]2(C[C@@H](Oc3ccccn3)CO2)C1
  cytotoxicity at 70.5 h: -18.9%

## O=C1CC2(CCN(Cc3ccccn3)C2)CN1c1cccnc1 (stereo not drawn)
  cytotoxicity at 70.5 h: 1.41%

## O=C1N(c2ccsc2)CCC12CCCN(Cc1ccccn1)C2 (stereo not drawn)
  cytotoxicity at 70.5 h: -4.36%

## Fc1ccc(CN2CCO[C@H]3[C@H](Oc4ccccn4)CC[C@@H]32)cc1
  cytotoxicity at 70.5 h: 7.26%

## CC(=O)N1[C@H](Cn2cncn2)C[C@@H]2CN(Cc3ccccn3)CC[C@@H]21
  cytotoxicity at 70.5 h: 17.3%

## CC(C)N(C)[C@@H]1CCN(c2ncccn2)[C@H]1Cc1ccncc1
  cytotoxicity at 70.5 h: 1.38%

## CC(=O)N1[C@H](Cn2cncn2)C[C@@H]2CN(Cc3cccnc3)CC[C@@H]21
  cytotoxicity at 70.5 h: -2.89%

## COc1ncccc1CN1Cc2nnn(C)c2C(COCC2CC2)C1 (stereo not drawn)
  cytotoxicity at 70.5 h: 1.61%

## Fc1cccc(N2CCCC3(C2)CN(c2ncccn2)CCO3)c1 (stereo not drawn)
  cytotoxicity at 70.5 h: -0.813%

## COCCN1C[C@@H]2CN(Cc3cccc(F)c3)CCC[C@]2(C(=O)O)C1
  cytotoxicity at 70.5 h: 20.7%

## Cc1ccc(N2CC3(COCCN(Cc4cccnc4)C3)OCC2=O)s1 (stereo not drawn)
  cytotoxicity at 70.5 h: 26.6%

## Cc1cccc(CN2CCO[C@H]3[C@H](Oc4ccccn4)CC[C@@H]32)n1
  cytotoxicity at 70.5 h: -1.62%

## CN1CCN(Cc2cn3c(n2)CN(C(=O)c2ccccn2)CC3)CC1
  cytotoxicity at 70.5 h: -2.89%
